This note sets out measurements from patent US20260167619A2, “INDOLINE COMPOUNDS AND DERIVATIVES AS EGFR INHIBITORS” (BeOne Medicines I GmbH, priority 2020, published 2026).

For assay [1], the target named is EGFR(Dell9_T790M_C797S) (aa 669-1210, in house) (Homo sapiens, UniProt P00533, T790M/C797S, form not given). In words: Biochemical EGFR inhibition assay (TR-FRET), Del19/T790M/C797S mutant. As to conditions: ATP at Km, 15 min pre-incubation, 60 min reaction; read-out: Del_TM_CS (Km ATP) IC50. How it is done: (§1) Compounds were tested for inhibition of kinase activity against EGFR (aa668-1210, Invitrogen), EGFR(L858R_T790M_C797S) (aa695-end, Invitrogen) and EGFR(Dell9_T790M_C797S) (aa 669-1210, in house) in assays based on time-resolved fluorescence-resonance energy transfer (TR-FRET) methodology. Recombinant EGFR, EGFR(L858R_T790M_C797S) or EGFR(Dell9_T790M_C797S) was pre-incubated with the compounds at room temperature for 15 minutes in an assay buffer containing 50 mM HEPES pH7.5, 10 mM MgCl2, 2 mM DTT, 1 mM EGTA, 0.1% BSA, 0.01% Tween-20. The reactions were initiated by the addition of ATP (at the concentration of ATP Km) and substrate Biotin-Poly GT. After reaction at room temperature for 60 minutes, stop/detection solution was added. The stop/detection solution contained Eu^3+ cryptate-conjugated mouse monoclonal antibody (PT66) anti-phosphotyrosine and XL665-conjugated streptavidin in buffer containing 50 mM HEPES pH7.0, 800 mM KF, 20 mM EDTA, and 0.1% BSA. Plates were sealed and incubated at room temperature for 1 hour, and the TR-FRET signals (ratio of fluorescence emission at 665 nm over emission at 620 nm with excitation at 337 nm wavelength) were recorded on a PHERAstar FS plate reader (BMG Labtech). The residual enzyme activity in presence of increasing concentrations of compounds was calculated based on the ratio of fluorescence at 665 nm to that at 620 nm. The IC50 for each compound was derived from fitting the data to the four-parameter logistic equation by Dotmatics or Graphpad Prism software.
(§2) These biochemical EGFR enzyme form compound dose-response assays quantify the kinase activity via phosphorylation of a tagged poly-GT substrate. The results of the assay are provided as IC50 values.

Assay [2] concerns the target T1, EGFR (aa668-1210, Invitrogen) (Homo sapiens, UniProt P00533).
T1 construct: EGFR (aa668-1210, Invitrogen); purchased Invitrogen
Briefly: Biochemical EGFR inhibition assay (TR-FRET), wild-type EGFR. Conditions: ATP at Km, 15 min pre-incubation, 60 min reaction; read-out: WT (Km ATP) IC50. As for the experimental part: as §1, §2
(In general: In TR-FRET formats the signal depends on donor and acceptor labels being close together.)

Assay [3] has as its target T2, EGFR(L858R_T790M_C797S) (aa695-end, Invitrogen) (Homo sapiens, UniProt P00533, C797S/L858R/T790M).
T2 construct: purchased Invitrogen
Briefly: Biochemical EGFR inhibition assay (TR-FRET), L858R/T790M/C797S mutant. Conditions: ATP at Km, 15 min pre-incubation, 60 min reaction; read-out: LR_TM_CS (Km ATP) IC50. As for the experimental part: as §1, §2

EGFR(Dell9_T790M_C797S) (aa 669-1210, in house), sequence (P00533 with tags, fused parts or gaps DEL746-750/T790M/C797S, form open): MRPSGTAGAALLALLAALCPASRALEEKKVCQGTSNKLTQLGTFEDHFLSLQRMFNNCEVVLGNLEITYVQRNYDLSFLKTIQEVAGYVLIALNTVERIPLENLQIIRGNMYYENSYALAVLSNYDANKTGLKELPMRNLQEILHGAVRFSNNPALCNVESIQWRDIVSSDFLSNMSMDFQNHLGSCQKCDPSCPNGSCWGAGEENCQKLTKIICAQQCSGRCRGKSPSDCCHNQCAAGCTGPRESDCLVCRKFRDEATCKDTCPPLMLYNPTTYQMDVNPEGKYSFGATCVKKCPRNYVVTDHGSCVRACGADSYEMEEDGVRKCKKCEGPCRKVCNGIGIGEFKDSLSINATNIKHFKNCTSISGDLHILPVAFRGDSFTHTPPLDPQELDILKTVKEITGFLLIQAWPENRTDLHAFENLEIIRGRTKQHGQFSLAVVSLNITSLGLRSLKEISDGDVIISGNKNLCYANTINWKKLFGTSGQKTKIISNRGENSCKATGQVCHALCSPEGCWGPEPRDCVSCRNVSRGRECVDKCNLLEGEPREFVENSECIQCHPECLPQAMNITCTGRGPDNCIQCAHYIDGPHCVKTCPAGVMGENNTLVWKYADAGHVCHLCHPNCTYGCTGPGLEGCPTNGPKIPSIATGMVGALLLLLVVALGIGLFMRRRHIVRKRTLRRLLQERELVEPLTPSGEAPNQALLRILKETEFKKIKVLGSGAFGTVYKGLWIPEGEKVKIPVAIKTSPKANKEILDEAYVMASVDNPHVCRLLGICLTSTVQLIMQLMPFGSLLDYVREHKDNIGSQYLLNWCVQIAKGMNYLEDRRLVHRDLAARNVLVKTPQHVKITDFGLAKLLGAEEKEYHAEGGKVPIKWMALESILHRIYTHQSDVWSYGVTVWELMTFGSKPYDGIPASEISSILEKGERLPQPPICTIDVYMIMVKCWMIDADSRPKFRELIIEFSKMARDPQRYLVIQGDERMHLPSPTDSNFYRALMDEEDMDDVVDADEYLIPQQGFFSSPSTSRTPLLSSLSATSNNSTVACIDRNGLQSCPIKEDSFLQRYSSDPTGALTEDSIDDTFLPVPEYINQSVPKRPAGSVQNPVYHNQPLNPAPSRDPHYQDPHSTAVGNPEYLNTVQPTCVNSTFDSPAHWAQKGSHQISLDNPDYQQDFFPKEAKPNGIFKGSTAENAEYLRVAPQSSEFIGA
T1 sequence (P00533 668-1210): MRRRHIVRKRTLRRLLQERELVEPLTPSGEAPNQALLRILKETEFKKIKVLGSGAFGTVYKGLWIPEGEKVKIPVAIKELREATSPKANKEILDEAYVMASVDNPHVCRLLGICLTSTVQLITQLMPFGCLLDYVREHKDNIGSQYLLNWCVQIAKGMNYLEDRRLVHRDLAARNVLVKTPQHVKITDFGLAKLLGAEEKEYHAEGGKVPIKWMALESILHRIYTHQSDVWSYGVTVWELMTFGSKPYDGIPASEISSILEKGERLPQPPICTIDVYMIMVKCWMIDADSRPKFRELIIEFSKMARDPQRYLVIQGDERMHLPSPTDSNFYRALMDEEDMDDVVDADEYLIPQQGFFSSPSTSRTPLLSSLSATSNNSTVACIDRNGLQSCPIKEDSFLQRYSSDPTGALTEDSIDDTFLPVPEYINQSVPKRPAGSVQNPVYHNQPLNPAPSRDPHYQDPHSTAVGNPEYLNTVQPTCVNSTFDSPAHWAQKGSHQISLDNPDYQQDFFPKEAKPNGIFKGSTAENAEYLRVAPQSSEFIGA
T2 sequence (P00533 695-1210 T790M/C797S/L858R): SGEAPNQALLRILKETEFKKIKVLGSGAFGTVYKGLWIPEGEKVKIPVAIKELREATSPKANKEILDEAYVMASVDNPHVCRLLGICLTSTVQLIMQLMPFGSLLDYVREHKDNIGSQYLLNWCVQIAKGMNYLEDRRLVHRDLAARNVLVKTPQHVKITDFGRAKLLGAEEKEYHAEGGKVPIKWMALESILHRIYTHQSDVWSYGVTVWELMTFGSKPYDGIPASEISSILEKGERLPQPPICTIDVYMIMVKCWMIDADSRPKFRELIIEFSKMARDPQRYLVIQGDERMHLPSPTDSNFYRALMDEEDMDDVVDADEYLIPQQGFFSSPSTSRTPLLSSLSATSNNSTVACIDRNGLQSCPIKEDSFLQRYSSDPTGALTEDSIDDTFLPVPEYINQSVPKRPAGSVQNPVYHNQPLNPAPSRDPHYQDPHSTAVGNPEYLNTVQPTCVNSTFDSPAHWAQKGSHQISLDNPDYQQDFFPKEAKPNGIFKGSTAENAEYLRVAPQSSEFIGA

Take `CN1CCN(C2CCN(c3ccc(Nc4nc(Nc5cccc6c5N(S(C)(=O)=O)CC6)c5cc[nH]c5n4)c4c3OCO4)CC2)CC1` [Example 182, N2-(7-(4-(4-methylpiperazin-1-yl)piperidin-1-yl)benzo[d][1,3]dioxol-4-yl)-N4-(1-(methylsulfonyl)indolin-7-yl)-7H-pyrrolo[2,3-d]pyrimidine-2,4-diamine]: the IC50 (usually the concentration that inhibits the measured activity by half) in assay [1] worked out at 1.5 nM; in assay [2], 230 nM; in assay [3] it was 1.2 nM.
Take `Cc1cc(Nc2nc(Nc3cccc4c3N(S(C)(=O)=O)CC4)c3cc[nH]c3n2)ccc1N1CCC(N2CCN(C)CC2)CC1` [Example 82, N^2-(3-methyl-4-(4-(4-methylpiperazin-1-yl)piperidin-1-yl)phenyl)-N^4-(1-(methylsulfonyl)indolin-7-yl)-7H-pyrrolo[2,3-d]pyrimidine-2,4-diamine]: the IC50 in assay [1] came to 0.85 nM; in assay [2] it was 39.7 nM; in assay [3], 0.7 nM.
Consider `CCN1CCN(C2CCN(c3c(F)cc(Nc4nc(Nc5cccc6c5N(S(C)(=O)=O)CC6)c5cc[nH]c5n4)cc3F)CC2)CC1` [Example 78, N^2-(4-(4-(4-ethylpiperazin-1-yl)piperidin-1-yl)-3,5-difluorophenyl)-N^4-(1-(methylsulfonyl)indolin-7-yl)-7H-pyrrolo[2,3-d]pyrimidine-2,4-diamine], for which the half-maximal inhibitory concentration (IC50) amounted to 2 nM in assay [1], 99 nM in assay [2] and 1.5 nM in assay [3].
In the case of `COc1cc(N2CCC(N3CCN(C)CC3=O)CC2)ccc1Nc1nc(Nc2cccc3c2N(S(C)(=O)=O)CC3)c2cc[nH]c2n1` [Example 191, 1-(1-(3-methoxy-4-((4-((1-(methylsulfonyl)indolin-7-yl)amino)-7H-pyrrolo[2,3-d]pyrimidin-2-yl)amino)phenyl)piperidin-4-yl)-4-methylpiperazin-2-one], the IC50 was found to be 1.9 nM in assay [1], 31.6 nM in assay [2] and 0.6 nM in assay [3].
Take `CN1CCN(C2CCN(c3ccc(Nc4ncc(Br)c(Nc5cccc6c5N(S(C)(=O)=O)CC6)n4)c4c3OCCO4)CC2)CC1` [Example 193, 5-bromo-N2-(8-(4-(4-methylpiperazin-1-yl)piperidin-1-yl)-2,3-dihydrobenzo[b][1,4]dioxin-5-yl)-N4-(1-(methylsulfonyl)indolin-7-yl)pyrimidine-2,4-diamine]: the IC50 turned out to be 0.2 nM in assay [1], 7.1 nM in assay [2] and 0.9 nM in assay [3].
Taken in the same sequence, the figures for `COc1cc(N2CCC(N3CCN(C)CC3)CC2)c(C)cc1Nc1nc(N)c(Br)c(Nc2cccc3c2N(S(C)(=O)=O)CC3)n1` [Example 197, 5-bromo-N2-(2-methoxy-5-methyl-4-(4-(4-methylpiperazin-1-yl)piperidin-1-yl)phenyl)-N4-(1-(methylsulfonyl)indolin-7-yl)pyrimidine-24,6-triamine] were 2.9 nM, 1.2 nM and 1.2 nM.
For `CN1CCN(C2CCN(c3ccc(Nc4nc(Nc5cccc6c5N(S(C)(=O)=O)CC6)c5cc[nH]c5n4)nc3)CC2)CC1` [Example 154, N2-(5-(4-(4-methylpiperazin-1-yl)piperidin-1-yl)pyridin-2-yl)-N4-(1-(methylsulfonyl)indolin-7-yl)-7H-pyrrolo[2,3-d]pyrimidine-2,4-diamine], in that order: 2.2 nM, 303 nM and 2.7 nM.
Regarding `COc1cc(N2C[C@@H]3C[C@H]2CN3C)ccc1Nc1nc(Nc2cccc3c2N(S(C)(=O)=O)CC3)c2cc[nH]c2n1` [Example 110, N^2-(2-methoxy-4-((1S,4S)-5-methyl-2,5-diazabicyclo[2.2.1]heptan-2-yl)phenyl)-N^4-(1-(methylsulfonyl)indolin-7-yl)-7H-pyrrolo[2,3-d]pyrimidine-2,4-diamine], the IC50 in assay [1] is 10.7 nM; in assay [2], 572 nM; in assay [3], 5.1 nM.
With `CN1CCN(C2CCN(c3c(F)cc(Nc4ncc(Br)c(Nc5cccc6c5N(S(C)(=O)=O)CC6)n4)c4c3CCO4)CC2)CC1` [Example 60, 5-bromo-N^2-(5-fluoro-4-(4-(4-methylpiperazin-1-yl)piperidin-1-yl)-2,3-dihydrobenzofuran-7-yl)-N^4-(1-(methylsulfonyl)indolin-7-yl)pyrimidine-2,4-diamine], the IC50 was found to be 0.35 nM in assay [1], 0.5 nM in assay [2] and 0.3 nM in assay [3].
With `COc1cc(N2CCC(N3CCN(C)C4(CC4)C3)CC2)ccc1Nc1nc(Nc2cccc3c2N(S(C)(=O)=O)CC3)c2cc[nH]c2n1` [Example 189, N2-(2-methoxy-4-(4-(4-methyl-4,7-diazaspiro[2.5]octan-7-yl)piperidin-1-yl)phenyl)-N4-(1-(methylsulfonyl)indolin-7-yl)-7H-pyrrolo[2,3-d]pyrimidine-2,4-diamine], the IC50 in assay [1] amounted to 1.2 nM; in assay [2], 35.3 nM; in assay [3] it was 0.9 nM.
Regarding `COc1cc(N2CCC(N3CCN(C)CC3)CC2)ccc1Nc1ncc(Br)c(Nc2cccc3c2N(S(C)(=O)=O)CC32CC2)n1` [Example 28, 5-bromo-N^2-(2-methoxy-4-(4-(4-methylpiperazin-1-yl)piperidin-1-yl)phenyl)-N^4-(1′-(methylsulfonyl)spiro[cyclopropane-1,3′-indolin]-7′-yl)pyrimidine-2,4-diamine], the values for the IC50 in assay [1], in assay [2] and in assay [3] were 0.39 nM, 0.9 nM and 0.44 nM, respectively.
For `COc1cc(N2CCC(N3CCN(C)CC3)CC2)ccc1Nc1ncc(Br)c(Nc2cccc3c2N(S(C)(=O)=O)C2(CC2)C3)n1` [Example 136, 5-bromo-N2-(2-methoxy-4-(4-(4-methylpiperazin-1-yl)piperidin-1-yl)phenyl)-N4-(1′-(methylsulfonyl)spiro[cyclopropane-1,2′-indolin]-7′-yl)pyrimidine-2,4-diamine], in that order: 0.9 nM, 1.4 nM and 0.3 nM.
`COc1cc(N2CCC3(CCN(C)CC3)CC2)c(Cl)cc1Nc1ncc(Br)c(Nc2cccc3c2N(S(C)(=O)=O)CC3)n1` [Example 44, 5-bromo-N^2-(5-chloro-2-methoxy-4-(9-methyl-3,9-diazaspiro[5.5]undecan-3-yl)phenyl)-N^4-(1-(methylsulfonyl)indolin-7-yl)pyrimidine-2,4-diamine]: the IC50 in assay [1] turned out to be 0.7 nM; in assay [2] it was 3.2 nM; in assay [3], 0.3 nM.
For `COc1cc(N2CCC(N(C)C)CC2)c(C)cc1Nc1ncc(Br)c(Nc2cccc3c2N(S(C)(=O)=O)CC3)n1` [Example 46, 5-bromo-N^2-(4-(4-(dimethylamino)piperidin-1-yl)-2-methoxy-5-methylphenyl)-N^4-(1-(methylsulfonyl)indolin-7-yl)pyrimidine-2,4-diamine], in that order: 0.2 nM, 0.9 nM and 0.1 nM.
As to `COc1cc(N2CCC(N3CCN(C)CC3)CC2)ncc1Nc1nc(Nc2cccc3c2N(S(C)(=O)=O)CC3)c2cc[nH]c2n1` [Example 190, N2-(4-methoxy-6-(4-(4-methylpiperazin-1-yl)piperidin-1-yl)pyridin-3-yl)-N4-(1-(methylsulfonyl)indolin-7-yl)-7H-pyrrolo[2,3-d]pyrimidine-2,4-diamine], the IC50 in assay [1] was 5.6 nM; in assay [2], 883 nM; in assay [3] it was 3.8 nM.
For `COc1cc(N2CCC(N3CCN(C)CC3)CC2)ccc1Nc1ncc(Cl)c(Nc2cccc3c2N(S(=O)(=O)CF)CC3)n1` [Example 12, 5-chloro-N^4-(1-((fluoromethyl)sulfonyl)indolin-7-yl)-N^2-(2-methoxy-4-(4-(4-methylpiperazin-1-yl)piperidin-1-yl)phenyl)pyrimidine-2,4-diamine], in that order: 0.44 nM, 3 nM and 1.17 nM.
For `CC1Cc2c(N3CCN(C)CC3)ccc(Nc3ncc(Br)c(Nc4cccc5c4N(S(C)(=O)=O)CC5)n3)c2O1` (stereo not drawn) [Example 62, 5-bromo-N^2-(2-methyl-4-(4-methylpiperazin-1-yl)-2,3-dihydrobenzofuran-7-yl)-N^4-(1-(methylsulfonyl)indolin-7-yl)pyrimidine-2,4-diamine], in that order: 0.42 nM, 11.6 nM and 0.68 nM.
